# Like-named read-outs stand apart in the source and are kept apart here.
# Assays:
# [1] = cited from earlier work
# [2] = water solubility; format: physicochemical; conditions: particles having mean diameter D[4,3] higher than 85 μm
# [3] = hygroscopicity / absorption of atmospheric humidity (water content by Karl-Fischer); format: physicochemical; conditions: particles having mean diameter D[4,3] higher than 85 μm (150 μm vs known 50 μm sample, 25° C., 50% relative humidity, FIG. 2)
# Protocol: The samples water content was determined by the known Karl—Fischer technique. “Approximatively” and “about” herein mean around ±10% of the indicated value.
# [4] = cited from earlier work; remark: listed apart in the source
# [5] = reported by EP 965 343; cited from earlier work
# [6] = particles having diameter lower than or equal to 85 μm, aqueous solutions at physiological pH, EP 965 343; cited from earlier work
Compound,"hygroscopicity ([1]; exposed to air, spontaneously converts to the hydrate form)",hygroscopicity ([1]; particles with diameter lower than or equal to 85 μm),water solubility [2],resistance to absorption of atmospheric humidity ([3]; listed as Anhydrous ziprasidone hydrochloride),resistance to absorption of atmospheric humidity ([3]; hydrochloride),permeability through biological membranes [4],water solubility [5],amount of the compound that dissolves within 45 minutes [6]
Cl.O=C1Cc2cc(CCN3CCN(c4nsc5ccccc45)CC3)c(Cl)cc2N1 [anhydrous ziprasidone hydrochloride],highly hygroscopic,high hygroscopicity,substantially unchanged,higher resistance to the absorption of atmospheric humidity,improved resistance to atmospheric humidity,,,
"Cl.O=C1Cc2cc(CCN3CCN(c4nsc5ccccc45)CC3)c(Cl)cc2N1 [ziprasidone hydrochloride, 5-(2-(4-(1,2-benzisothiazol-3-yl)-1-piperazinyl)-ethyl)-6-chloro-1,3-dihydro-2H-indol-2-one hydrochloride]",,,,,,high permeability,sparingly water-soluble,at least 70%

# From patent US7563794B2, “Ziprasidone free from colored impurities and a process for its preparation” (Dipharma Francis S.r.l., priority 2005, dated 2009)
